Key:
[1] = target: Epidermal growth factor receptor (Homo sapiens) (UniProt P00533); experiment: Binding affinity to partial length wild type human EGFR (R669 to V1011 residues) expressed in bacterial expression system assessed as fraction of unbound kinase to substrate at 0.1 uM after 1 hr by KinomeScan assay
[2] = target: Cyclin-dependent kinase 2 (Homo sapiens) (UniProt P24941); experiment: Binding affinity to wild-type human full length CDK2 (M1 to L298 residues) expressed in bacterial expression system assessed as fraction of unbound kinase to substrate at 1 uM after 1 hr by KinomeScan assay
[3] = target: T1, Tyrosine-protein kinase receptor TYRO3 (Homo sapiens, UniProt Q06418); experiment: Inhibition of recombinant GST-tagged human Tyro3 (451 to 890 residues) cytoplasmic domain expressed in Baculovirus expression system using poly (Glu-Ala-Tyr) peptide as substrate after 5 mins in presence of ADP by fluorescence analysis
T1 sequence (Q06418 whole entry): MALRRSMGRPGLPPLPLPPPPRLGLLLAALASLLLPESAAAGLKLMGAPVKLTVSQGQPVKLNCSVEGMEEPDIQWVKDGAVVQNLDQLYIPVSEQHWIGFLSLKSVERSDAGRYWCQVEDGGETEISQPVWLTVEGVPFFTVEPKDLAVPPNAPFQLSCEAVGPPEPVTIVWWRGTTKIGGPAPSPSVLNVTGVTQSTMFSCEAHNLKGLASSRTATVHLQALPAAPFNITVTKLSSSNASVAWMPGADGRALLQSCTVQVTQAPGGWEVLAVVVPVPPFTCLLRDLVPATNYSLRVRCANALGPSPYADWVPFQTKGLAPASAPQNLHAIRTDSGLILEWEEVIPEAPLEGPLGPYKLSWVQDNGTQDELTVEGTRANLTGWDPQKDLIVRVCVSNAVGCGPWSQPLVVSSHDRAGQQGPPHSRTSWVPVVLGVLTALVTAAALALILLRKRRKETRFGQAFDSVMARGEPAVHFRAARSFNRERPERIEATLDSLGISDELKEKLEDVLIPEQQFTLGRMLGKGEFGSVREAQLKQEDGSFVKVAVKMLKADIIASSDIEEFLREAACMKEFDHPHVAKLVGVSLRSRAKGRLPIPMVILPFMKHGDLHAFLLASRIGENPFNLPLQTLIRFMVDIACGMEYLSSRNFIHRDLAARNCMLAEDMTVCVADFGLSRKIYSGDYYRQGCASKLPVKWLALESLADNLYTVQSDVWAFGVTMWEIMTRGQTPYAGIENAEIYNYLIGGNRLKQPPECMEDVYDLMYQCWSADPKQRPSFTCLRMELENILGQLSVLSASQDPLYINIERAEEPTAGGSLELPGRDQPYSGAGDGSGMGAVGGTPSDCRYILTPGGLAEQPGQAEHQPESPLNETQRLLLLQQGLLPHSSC

[4] = target: Glycogen synthase kinase-3 beta (Homo sapiens) (UniProt P49841); experiment: Binding affinity to full length wild type human GSK3beta (M1 to T433 residues) expressed in mammalian expression system assessed as fraction of unbound kinase to substrate at 1 uM after 1 hr by KinomeScan assay
[5] = target: Hepatocyte growth factor receptor (Homo sapiens) (UniProt P08581); experiment: Binding affinity to human MET (D1010 to S1367 residues) expressed in bacterial expression system assessed as fraction of unbound kinase to substrate at 0.1 uM after 1 hr by KinomeScan assay
[6] = target: Hepatocyte growth factor receptor (Homo sapiens) (UniProt P08581); experiment: Binding affinity to human MET (D1010 to S1367 residues) expressed in bacterial expression system assessed as fraction of unbound kinase to substrate at 10 uM after 1 hr by KinomeScan assay
[7] = target: T2, Aurora kinase A (Homo sapiens) (UniProt O14965); experiment: Binding affinity to wild-type human partial length AURKA (E122 to K401 residues) expressed in mammalian expression system assessed as fraction of unbound kinase to substrate at 0.1 uM after 1 hr by KinomeScan assay
T2 sequence (whole entry): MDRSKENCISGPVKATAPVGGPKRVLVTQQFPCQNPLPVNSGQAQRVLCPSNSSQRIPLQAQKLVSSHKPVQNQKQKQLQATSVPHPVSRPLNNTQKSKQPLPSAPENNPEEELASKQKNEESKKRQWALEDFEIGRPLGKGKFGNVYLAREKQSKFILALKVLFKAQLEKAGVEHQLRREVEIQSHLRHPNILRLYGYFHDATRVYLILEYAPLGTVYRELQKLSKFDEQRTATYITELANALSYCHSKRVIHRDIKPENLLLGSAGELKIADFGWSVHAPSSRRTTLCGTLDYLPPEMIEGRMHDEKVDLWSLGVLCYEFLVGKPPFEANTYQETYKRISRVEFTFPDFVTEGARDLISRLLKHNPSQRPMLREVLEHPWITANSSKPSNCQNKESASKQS

[8] = target: Epidermal growth factor receptor (Homo sapiens) (UniProt P00533); experiment: Binding affinity to partial length wild type human EGFR (R669 to V1011 residues) expressed in bacterial expression system assessed as fraction of unbound kinase to substrate at 10 uM after 1 hr by KinomeScan assay
[9] = target: Fibroblast growth factor receptor 1 (Homo sapiens) (UniProt P11362); experiment: Binding affinity to wild-type human partial length FGFR1 (P357 to V669 residues) expressed in bacterial expression system assessed as fraction of unbound kinase to substrate at 10 uM after 1 hr by KinomeScan assay
[10] = target: Tyrosine-protein kinase receptor UFO (Homo sapiens) (UniProt P30530); experiment: Binding affinity to human AXL (R497 to Y821 residues) expressed in bacterial expression system assessed as fraction of unbound kinase to substrate at 1 uM after 1 hr by KinomeScan assay
Sequence of Tyrosine-protein kinase receptor UFO (Homo sapiens) (P30530 whole entry, the tested form may be a part): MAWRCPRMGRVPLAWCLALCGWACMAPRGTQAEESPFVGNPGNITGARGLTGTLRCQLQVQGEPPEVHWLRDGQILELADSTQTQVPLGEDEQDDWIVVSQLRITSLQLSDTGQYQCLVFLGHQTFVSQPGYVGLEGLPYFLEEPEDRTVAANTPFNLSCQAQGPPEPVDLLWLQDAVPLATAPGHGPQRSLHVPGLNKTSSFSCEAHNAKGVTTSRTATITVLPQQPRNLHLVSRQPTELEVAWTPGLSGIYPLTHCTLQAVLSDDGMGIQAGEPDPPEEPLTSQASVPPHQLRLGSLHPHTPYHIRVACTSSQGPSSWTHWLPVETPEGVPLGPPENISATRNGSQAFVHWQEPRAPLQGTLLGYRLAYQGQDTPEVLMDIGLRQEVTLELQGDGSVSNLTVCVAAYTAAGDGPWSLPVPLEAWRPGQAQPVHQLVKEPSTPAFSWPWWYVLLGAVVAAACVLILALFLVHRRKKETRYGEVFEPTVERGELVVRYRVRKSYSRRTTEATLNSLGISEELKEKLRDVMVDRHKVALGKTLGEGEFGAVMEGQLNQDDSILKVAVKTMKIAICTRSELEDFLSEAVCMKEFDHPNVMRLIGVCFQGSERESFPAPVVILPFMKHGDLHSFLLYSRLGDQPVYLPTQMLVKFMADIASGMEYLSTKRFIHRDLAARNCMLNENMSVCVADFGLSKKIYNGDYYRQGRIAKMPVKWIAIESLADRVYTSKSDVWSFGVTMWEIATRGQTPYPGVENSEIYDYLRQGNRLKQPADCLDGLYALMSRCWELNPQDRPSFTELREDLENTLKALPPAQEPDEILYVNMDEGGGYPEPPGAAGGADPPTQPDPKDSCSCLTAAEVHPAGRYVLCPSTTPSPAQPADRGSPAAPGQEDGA

Sequence of Glycogen synthase kinase-3 beta (Homo sapiens) (P49841 whole entry, looked up, the tested form may be a part): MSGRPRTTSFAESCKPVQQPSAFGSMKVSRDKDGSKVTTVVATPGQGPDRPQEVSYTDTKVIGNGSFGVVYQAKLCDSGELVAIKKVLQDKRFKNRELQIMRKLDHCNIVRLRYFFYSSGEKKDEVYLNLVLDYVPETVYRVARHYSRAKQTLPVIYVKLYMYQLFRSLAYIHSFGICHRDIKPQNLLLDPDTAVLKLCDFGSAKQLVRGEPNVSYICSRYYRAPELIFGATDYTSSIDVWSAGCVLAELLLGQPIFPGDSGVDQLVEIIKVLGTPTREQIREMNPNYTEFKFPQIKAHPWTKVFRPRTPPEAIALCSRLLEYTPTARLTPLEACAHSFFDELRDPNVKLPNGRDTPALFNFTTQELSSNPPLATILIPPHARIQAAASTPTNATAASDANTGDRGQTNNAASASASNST
Sequence of Hepatocyte growth factor receptor (Homo sapiens) (P08581 whole entry, the tested form may be a part): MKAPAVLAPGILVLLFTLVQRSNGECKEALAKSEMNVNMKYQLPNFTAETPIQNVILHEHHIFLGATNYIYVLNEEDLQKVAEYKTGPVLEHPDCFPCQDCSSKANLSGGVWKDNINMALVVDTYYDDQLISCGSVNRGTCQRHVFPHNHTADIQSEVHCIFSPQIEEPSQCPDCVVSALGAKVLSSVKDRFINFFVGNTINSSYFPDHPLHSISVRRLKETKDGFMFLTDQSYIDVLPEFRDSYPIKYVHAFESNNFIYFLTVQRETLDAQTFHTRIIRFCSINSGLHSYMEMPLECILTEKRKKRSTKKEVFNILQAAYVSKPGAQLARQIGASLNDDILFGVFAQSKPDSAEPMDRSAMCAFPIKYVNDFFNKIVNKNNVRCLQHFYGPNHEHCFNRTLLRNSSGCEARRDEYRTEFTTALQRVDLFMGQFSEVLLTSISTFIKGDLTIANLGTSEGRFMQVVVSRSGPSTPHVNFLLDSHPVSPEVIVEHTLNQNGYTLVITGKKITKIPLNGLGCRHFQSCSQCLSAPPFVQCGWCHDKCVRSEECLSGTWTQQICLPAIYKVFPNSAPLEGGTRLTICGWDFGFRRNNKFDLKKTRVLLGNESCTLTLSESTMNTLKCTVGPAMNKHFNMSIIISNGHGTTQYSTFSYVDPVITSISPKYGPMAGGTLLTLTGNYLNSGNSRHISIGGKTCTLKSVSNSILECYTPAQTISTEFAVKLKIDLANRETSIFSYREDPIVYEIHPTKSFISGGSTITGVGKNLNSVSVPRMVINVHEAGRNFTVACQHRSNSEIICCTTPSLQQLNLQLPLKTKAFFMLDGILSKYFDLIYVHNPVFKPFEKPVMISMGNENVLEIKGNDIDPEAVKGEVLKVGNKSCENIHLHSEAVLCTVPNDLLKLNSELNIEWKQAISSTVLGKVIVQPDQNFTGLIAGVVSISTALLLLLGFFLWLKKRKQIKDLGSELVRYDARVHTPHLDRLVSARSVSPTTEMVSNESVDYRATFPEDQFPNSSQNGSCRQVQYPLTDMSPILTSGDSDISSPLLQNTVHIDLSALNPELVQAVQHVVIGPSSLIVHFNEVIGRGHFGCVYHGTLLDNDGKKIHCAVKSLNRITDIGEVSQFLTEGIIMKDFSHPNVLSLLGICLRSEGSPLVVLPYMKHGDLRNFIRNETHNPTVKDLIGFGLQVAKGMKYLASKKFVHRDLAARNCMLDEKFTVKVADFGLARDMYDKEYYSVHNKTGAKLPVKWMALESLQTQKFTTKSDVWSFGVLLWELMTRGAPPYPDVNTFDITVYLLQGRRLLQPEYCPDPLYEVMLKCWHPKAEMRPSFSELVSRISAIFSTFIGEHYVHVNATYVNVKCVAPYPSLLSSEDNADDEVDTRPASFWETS
Sequence of Fibroblast growth factor receptor 1 (Homo sapiens) (P11362 22-822 limits assumed): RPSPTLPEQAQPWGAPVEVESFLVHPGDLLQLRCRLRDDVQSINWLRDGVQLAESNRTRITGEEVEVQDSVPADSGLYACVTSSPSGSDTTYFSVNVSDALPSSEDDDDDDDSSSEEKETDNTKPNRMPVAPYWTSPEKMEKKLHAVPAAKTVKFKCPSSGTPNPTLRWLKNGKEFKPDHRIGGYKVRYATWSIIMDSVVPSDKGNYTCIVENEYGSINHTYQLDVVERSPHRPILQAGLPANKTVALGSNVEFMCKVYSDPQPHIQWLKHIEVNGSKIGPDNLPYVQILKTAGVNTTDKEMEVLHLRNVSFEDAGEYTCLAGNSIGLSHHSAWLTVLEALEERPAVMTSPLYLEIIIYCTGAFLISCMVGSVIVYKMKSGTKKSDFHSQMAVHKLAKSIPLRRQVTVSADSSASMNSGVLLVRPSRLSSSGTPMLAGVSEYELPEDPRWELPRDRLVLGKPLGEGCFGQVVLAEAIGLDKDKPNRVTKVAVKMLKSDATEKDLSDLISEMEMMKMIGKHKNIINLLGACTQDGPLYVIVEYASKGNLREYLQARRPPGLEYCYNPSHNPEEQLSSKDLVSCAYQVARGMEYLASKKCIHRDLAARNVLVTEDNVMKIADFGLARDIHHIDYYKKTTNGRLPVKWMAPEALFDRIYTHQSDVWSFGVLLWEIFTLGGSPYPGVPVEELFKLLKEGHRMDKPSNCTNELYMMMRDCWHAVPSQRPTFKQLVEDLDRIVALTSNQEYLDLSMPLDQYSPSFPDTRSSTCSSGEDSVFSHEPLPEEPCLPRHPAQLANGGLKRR
Sequence of Epidermal growth factor receptor (Homo sapiens) (P00533 whole entry, the tested form may be a part): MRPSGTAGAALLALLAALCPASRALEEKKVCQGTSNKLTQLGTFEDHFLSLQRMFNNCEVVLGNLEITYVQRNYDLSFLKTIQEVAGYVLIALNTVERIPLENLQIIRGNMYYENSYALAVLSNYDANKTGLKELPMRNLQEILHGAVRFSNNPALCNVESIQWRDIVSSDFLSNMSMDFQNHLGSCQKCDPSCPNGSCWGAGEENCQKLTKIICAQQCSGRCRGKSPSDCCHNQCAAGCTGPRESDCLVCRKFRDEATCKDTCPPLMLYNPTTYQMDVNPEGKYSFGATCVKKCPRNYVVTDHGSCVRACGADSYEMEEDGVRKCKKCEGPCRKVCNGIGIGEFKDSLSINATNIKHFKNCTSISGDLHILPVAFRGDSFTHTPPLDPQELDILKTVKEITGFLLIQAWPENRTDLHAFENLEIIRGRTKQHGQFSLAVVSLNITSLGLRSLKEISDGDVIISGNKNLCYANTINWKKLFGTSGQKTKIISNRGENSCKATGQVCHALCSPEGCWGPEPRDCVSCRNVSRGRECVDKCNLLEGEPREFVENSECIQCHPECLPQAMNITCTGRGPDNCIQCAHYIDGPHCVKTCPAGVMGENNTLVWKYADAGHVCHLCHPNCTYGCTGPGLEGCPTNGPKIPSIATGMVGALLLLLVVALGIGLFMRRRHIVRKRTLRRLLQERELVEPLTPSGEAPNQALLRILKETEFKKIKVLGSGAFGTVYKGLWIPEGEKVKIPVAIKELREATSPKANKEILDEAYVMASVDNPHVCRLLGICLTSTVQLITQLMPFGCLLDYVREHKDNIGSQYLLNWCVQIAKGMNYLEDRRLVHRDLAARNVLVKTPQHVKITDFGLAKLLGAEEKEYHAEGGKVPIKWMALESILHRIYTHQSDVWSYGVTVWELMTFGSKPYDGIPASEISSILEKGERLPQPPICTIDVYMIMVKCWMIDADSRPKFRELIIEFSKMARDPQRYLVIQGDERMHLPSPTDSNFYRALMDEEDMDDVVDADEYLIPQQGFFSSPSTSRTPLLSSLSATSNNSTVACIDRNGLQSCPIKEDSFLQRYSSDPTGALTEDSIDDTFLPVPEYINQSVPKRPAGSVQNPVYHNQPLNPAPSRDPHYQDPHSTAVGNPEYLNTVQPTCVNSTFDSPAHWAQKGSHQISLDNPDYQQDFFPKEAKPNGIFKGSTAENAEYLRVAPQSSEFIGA

Row | Structure (SMILES) | Activity [1] [%] | Activity [2] [%] | IC50 [3] [nM] | Activity [4] [%] | Activity [5] [%] | Activity [6] [%] | Activity [7] [%] | Activity [8] [%] | Activity [9] [%] | Activity [10] [%]
1 | Cc1cnc2[nH]cnc2c1Oc1ccc(NC(=O)c2cccn(-c3ccc(F)cc3)c2=O)cc1F | 1 | 0 | > 100000 | 5 | 54 | 96.2 | 1 | 0 | 15 | 67
2 | CC(C)c1nc2c(Oc3ccc(NC(=O)c4cccn(-c5ccc(F)cc5)c4=O)cc3F)ccnc2[nH]1 | 2 | 95.5 | 4700 | 0 | 83 | 96.6 | 1 | 8 | 1 | 90
3 | O=C(Nc1ccc(Oc2ccnc3[nH]cnc23)c(F)c1)c1cccn(-c2ccc(F)cc2)c1=O | 0 | 0 | 690 | 5 | 83 | 97 | 5 | 0 | 6 | 90.7
4 | O=C(Nc1ccc(Oc2c(Br)cnc3[nH]cnc23)c(F)c1)c1cccn(-c2ccc(F)cc2)c1=O | 0 | 0 | 270 | 1 | 12 | 96.4 | 7 | 1 | 11 | 52
